According to patent US11028111B2, “Compound for treating metabolic diseases and preparation method and use thereof” (Xi' An Biocare Pharma Ltd., priority 2017, dated 2021):

Tests used:
[1] = system: 17α-Ethinylestradiol (E2-17α) induced cholestasis in rats; assay: Bile discharge in 17α-ethinylestradiol (E2-17α) induced cholestasis in rats; format: in vivo, Sprague Dawley rats; settings: for Bile discharge amount compared with the ursodeoxycholic acid group: 105 minutes after administration, UDCA 15 mg/kg; for Bile flow rate compared with the E2-17α group / Effect on ameliorating intrahepatic cholestasis, promoting bile excretion: E2-17α cholestasis rats; for Bile flow rate compared with the E2-17α group: P<0.05 vs E2-17α; for Effect on ameliorating intrahepatic cholestasis, promoting bile excretion: conclusion
Description: Preparation of 1.0% CMC-Na solution: 1 p CMC-Na powder was weighed and added to 100 mL (50° C.) of distilled water, the mixture was rapidly stirred with a stirrer for 1 hour to fully swell, thereby to obtain a 1% CMC-Na solution.
Preparation of E2-17α solution in propylene glycol: 54/0.98=56 mp of E2-17α was weighed, dissolved in […] of propane-1,2-diol, shaked by a vortexer for 1 hour, thereby to obtain a 7 mp/mL suspension of E2-17α.
(§1) 17α-Ethinylestradiol (E2-17α) was administered by subcutaneous injection into the neck for model establishment for 7 days. Meantime, the test compounds were suspended in a 1% CMC-Na solution and administered by intragastric administration for 7 days during the E2-17α modeling.
(§2) E2-17α in propylene glycol was administered to rats for 7 days to establish the model, and different test samples in CMC-Na solution were administered by intragastric administration. On the 8th day, 1 mL of rat fasting blood sample was collected for detection of serum biochemical indicators, and E2-17α in propylene glycol was continuously administered to establish the model, and different test samples CMC-Na solution were administered by intragastric administration. After 0.5 hours of administration on the 9th day, the rats were weighed and anesthetized with 10% urethane (10 mL/kg) via intraperitoneal injection. After anesthesia, the rat was fixed on a board. A midline abdominal incision was made from the upper acetabular area, and the incision was about 2 to 3 cm. The indoor temperature should be maintained during the experiment, the body temperature of the rats was maintained and bile outflow was promoted. Handle of ophthalmic forceps was used to turn the liver up and find the duodenum and stomach junction. A suture (size 0) was placed at the junction to reserve. On the duodenum, about 2 cm away from the pylorus, a thin tube with a yellow transparent tube perpendicular to the duodenum could be found passing through the pancreas, that is, the common bile duct. At the junction of the common bile duct and the duodenum, the common bile duct was separated by an ophthalmic curved forceps, but was careful not to break the small blood vessels around the bile duct and avoided stimulating the pancreatic tissue by hand. After the separation, two sutures were place, and the suture close to the intestine end was ligated, as a traction suture, ophthalmic scissors were used to obliquely cut a small opening in the wall of the tube, a prepared pancreatic juice collection tube was inserted into the small opening. A mixture of yellow bile and pancreatic juice flowed out immediately after the insertion. The tube was ligated and fixed, and this tube was used to collect bile. After completion of the intubation, the skin was sutured. The other end of the bile duct intubation was taken out, flowing out to a fixed 0.5 mL centrifuge tube. Bile was continuously collected 8 times once every 15 minutes, until 120 minutes.
After completion of the intubation, the skin was sutured to prevent water evaporation of the abdominal cavity. The other end of the bile duct intubation was taken out, and the bile flowed out to a fixed 0.5 mL collection tube. Bile was continuously collected 8 times once every 15 minutes for a total of 120 minutes. Before the experiment, the collection tube was accurately weighed using an analytical balance. After the bile was collected in the experiment, the total weight of the bile and the collection tube was weighed, and the weight of the bile in the tube was calculated by subtraction and converted to a volume based on 1 g/mL.
(§3) The data were analyzed using SPSS18.0 statistics software. Measurement data were compared between the two groups using the t test. Multiple groups of means were compared using one-way analysis of variance (ANOVA) and multiple comparisons between groups. Data mean±standard error (Mean±SEM.) or mean±standard deviation (Mean±SD.).

[2] = system: 17α-Ethinylestradiol (E2-17α) induced cholestasis in rats; assay: Serum ALT, AST, ALP in E2-17α induced cholestasis rats; format: in vivo, Sprague Dawley rats; settings: for Serum ALP / Serum ALT / Serum AST: E2-17α cholestasis rats after intragastric administration, x ± s; for Values of ALT, AST, and ALP (serum): E2-17α cholestasis rats, in words
Description: as §1, §2
The blood sample was allowed to stand in a 37° C. water bath for 10 minutes, centrifuged at 3000 rpm (1368 g)×10 min, the serum was separated conventionally, dispensed and frozen at −20° C. for storage. The indicators to be detected in serum included ALT, AST, and ALP. The detection methods of the above indicators were all carried out in accordance with the relevant instructions of the kit.
as §3

[3] = system: rat model of cirrhotic portal hypertension (TAA); assay: Portal vein pressure in TAA-induced rat model of cirrhotic portal hypertension; format: in vivo, rats; settings: i.g.
Description: 1) Preparation of saline solution of TAA: 10 g of thioacetamide (TAA) was weighed and dissolved in 100 mL of saline solution, and then filtered through a 0.22 μm sterile membrane filter into a sterile bottle.
2) Preparation of 0.5% CMC-Na suspension of test compound: 400 mg of Compound 1-H, Compound 1-IP, Compound 1-Cl, Compound 1-Mel or Compound 2-0 were weighed and dissolved in 100 mL of 0.5% CMC-Na solution, and shaken by a vortexer for 30 minutes, thereby to obtain 20 mg/Kg (high dose) groups. That is, CMC-Na suspension of 4 mg/mL of Compounds 1-H, 1-IP, 1-Cl, 1-Mel or 2-0. For the middle and low dose groups, drug preparation methods were the same.
(§4) A rat model of cirrhotic portal hypertension was established by intraperitoneal injection of TAA. Except that the blank control group was intraperitoneally injected with saline, remaining animals were intraperitoneally injected (i.p.) with 10% thioacetamide (TAA) in saline solution to establish the model. The dose was 200 mg/Kg, and the administration volume was 2 mL/Kg. All experimental animals were intraperitoneally injected with TAA or an equal volume of saline once every three days. Before each dose, the rat shaving beddings should be replaced by clean ones in advance. The body weight was measured once every two modeling administration. The body weight of the rats increased or decreased by 10% compared with the previous one, the dose of TAA increased or decreased by […] correspondingly. The administration was individualized to strictly control body weight change of each rat, which could effectively improve the success rate and uniformity of modeling.
The successfully modeled animals were randomly grouped, 12 rats per group, and 20 rats in the blank control group. Portal hypertension was induced by TAA in rats, and a portal hypertension model was established after 13 days. The test compound was administered once a day for 10 days. […]
Rats were fasted for 12 hours before the experiment, and were anesthetized with 10% chloral hydrate via intraperitoneal injection. […] Stable portal vein pressure was measured. […]

[4] = system: rat model of cirrhotic portal hypertension (TAA); assay: Serum indicators (ALT, AST, ALP, ALB, γ-GT, TBA) in TAA cirrhotic portal hypertension rats; format: in vivo; settings: for Serum ALT level / Serum AST level: P<0.05
Description: as §4
(§5) The successfully modeled animals were randomly grouped, 12 rats per group, and 20 rats in the blank control group. Portal hypertension was induced by TAA in rats, and a portal hypertension model was established after 13 days. The test compound was administered once a day for 10 days. The specific groupings are shown as follows:
At the end of the administration, orbital blood was collected from the rats. The blood sample was placed in a 37° C. water bath for 10 minutes, centrifuged for 10 minutes at 3000 r/min (1370 g). Upper layer of the serum was taken and detected directly, or temporarily stored at −80° C., for serologic indicator measurement. After the blood samples were collected, the rats were fed with foods and water for 3 days.
1) 1.5 mL of orbital blood was collected before the experiment, of which the steps were the same as the aforesaid steps, to measure serum ALT, AST, ALP, γ-GT and TBA contents.

[5] = system: rat model of cirrhotic portal hypertension (TAA); assay: Liver appearance and liver pathological sections (Masson, HE) in TAA cirrhotic portal hypertension rats; format: in vivo
Description: as §4, §5
2) A small piece at same part of the liver of the rat was cut and fixed in a 10% formaldehyde solution for tissue section pathology observation. An appropriate size of the liver was cut off, and the blood on the surface was washed off quickly with saline, put into a sterile EP tube, cryopreserved in liquid nitrogen for subsequent experiments.

[6] = all administration groups, P<0.05, P<0.01

SMILES: CC[C@@H]1C2C[C@H](O)CC[C@]2(C)C2CC[C@@]3(C)C(CC[C@@H]3[C@H](C)CCOP3(=O)OCC[C@@H](c4ccnc(Cl)c4)O3)C2[C@@H]1O (some centres unmarked) [Compound 1-Cl]
- Bile discharge amount compared with the ursodeoxycholic acid group [1]: significantly higher
- Bile flow rate compared with the E2-17α group [1]: significantly increased
- Effect on ameliorating intrahepatic cholestasis, promoting bile excretion [1]: significant effect
- Serum ALP [2]: 226.65 ± 12.38 U/L
- Serum ALT [2]: 77.36 ± 11.42 U/L
- Serum AST [2]: 230.89 ± 12.38 U/L
- Values of ALT, AST, and ALP (serum) [2]: lower

SMILES: CC[C@@H]1C2C[C@H](O)CC[C@]2(C)C2CC[C@@]3(C)C(CC[C@@H]3[C@H](C)CCO[P@@]3(=O)OCC[C@@H](c4ccncc4)O3)C2[C@@H]1O (some centres unmarked) [Compound 1-H]
- Bile discharge amount compared with the ursodeoxycholic acid group [1]: significantly higher
- Bile flow rate compared with the E2-17α group [1]: significantly increased
- Effect on ameliorating intrahepatic cholestasis, promoting bile excretion [1]: significant effect
- Serum ALP [2]: 218.64 ± 18.94 U/L
- Serum ALT [2]: 72.36 ± 14.74 U/L
- Serum AST [2]: 228.82 ± 17.74 U/L
- Values of ALT, AST, and ALP (serum) [2]: lower
- Mean percentage change of portal vein pressure (vs mean of TAA group) ([3]; TAA + 5 mg/Kg): > 10%
- Mean percentage change of portal vein pressure (vs mean of TAA group) ([3]; TAA + 10 mg/Kg): > 10%
- Mean percentage change of portal vein pressure (vs mean of TAA group) ([3]; TAA + 20 mg/Kg): > 10%
- Serum ALT level ([4]; 5 mg/Kg group): decreased
- Serum AST level ([4]; 5 mg/Kg group): decreased
- Serum ALT level ([4]; 10 mg/Kg group): decreased
- Serum AST level ([4]; 10 mg/Kg group): decreased
- Serum ALT level ([4]; 20 mg/Kg group): decreased
- Serum AST level ([4]; 20 mg/Kg group): decreased
- Serum TBA level ([4]; all administration groups, P<0.01): decreased
- Serum ALP level (FIG. 10 (C)) [4, 6]: decreased
- Serum γ-GT level [4, 6]: decreased
- Appearance of liver and spleen (liver cirrhosis nodules) compared with TAA group ([5]; TAA + 5 mg/Kg): milder
- Liver pathological sections (Masson, HE): liver fibrosis ([5]; TAA + 5 mg/Kg): symptoms of liver fibrosis were ameliorated
- Effect on hyperplasia of liver fibrous tissue and pseudolobule formation (pathological indicators) ([5]; TAA rats, all dose groups): certain improvement effects

SMILES: CC(C)[C@@H]1C2C[C@H](O)CC[C@]2(C)C2CC[C@@]3(C)C(CC[C@@H]3[C@H](C)CCOP3(=O)OCC[C@@H](c4ccncc4)O3)C2[C@@H]1O (some centres unmarked) [Compound 1-IP]
- Bile flow rate compared with the E2-17α group [1]: significantly increased
- Effect on ameliorating intrahepatic cholestasis, promoting bile excretion [1]: significant effect
- Serum ALP [2]: 230.92 ± 14.00 U/L
- Serum ALT [2]: 87.42 ± 11.72 U/L
- Serum AST [2]: 258.83 ± 10.82 U/L
- Values of ALT, AST, and ALP (serum) [2]: lower

SMILES: CC[C@@H]1C2C[C@H](O)CC[C@]2(C)C2CC[C@@]3(C)C(CC[C@@H]3[C@H](C)CCOP3(=O)OC(C)C[C@@H](c4ccncc4)O3)C2[C@@H]1O (some centres unmarked) [Compound 1-Me1]
- Bile flow rate compared with the E2-17α group [1]: significantly increased
- Effect on ameliorating intrahepatic cholestasis, promoting bile excretion [1]: significant effect
- Serum ALP [2]: 235.64 ± 16.26 U/L
- Serum ALT [2]: 80.64 ± 13.22 U/L
- Serum AST [2]: 252.18 ± 16.59 U/L
- Values of ALT, AST, and ALP (serum) [2]: lower

SMILES: CC[C@@H]1C2C[C@H](O)CC[C@]2(C)C2CC[C@@]3(C)C(CC[C@@H]3[C@H](C)CCO[P@](=O)(N[C@@H](C)C(=O)COC(C)C)Oc3ccccc3)C2[C@@H]1O (some centres unmarked) [Compound 2-0]
- Bile flow rate compared with the E2-17α group [1]: significantly increased
- Effect on ameliorating intrahepatic cholestasis, promoting bile excretion [1]: significant effect
- Serum ALP [2]: 220.35 ± 12.92 U/L
- Serum ALT [2]: 78.64 ± 10.65 U/L
- Serum AST [2]: 236.59 ± 13.06 U/L
- Values of ALT, AST, and ALP (serum) [2]: lower

SMILES: C[C@H](CCC(=O)O)[C@H]1CC[C@H]2[C@@H]3[C@@H](O)C[C@@H]4C[C@H](O)CC[C@]4(C)[C@H]3CC[C@]12C [UDCA, ursodeoxycholic acid, reference compound]
- Serum ALP [2]: 242.18 ± 12.10 U/L
- Serum ALT [2]: 85.55 ± 13.80 U/L
- Serum AST [2]: 263.36 ± 15.35 U/L
